How the values were obtained:
C57BL/6 mice = experiment: Whole blood NAD levels after oral treatment; type: in vivo, mouse; conditions: 6 mg/kg SR005 or 100 mg/kg NAM, normalized by baseline (FIG. 8)
Text: Blood was collected and NAD detected as described in FIGS. 1A-1C. NAD values were normalized by baseline level for each mouse. Each line represents data for one mouse.

NADases = experiment: NAD protection from degradation by NADases in brain homogenate; type: biochemical, mouse; conditions: inhibitor added to aliquots of a brain sample after homogenisation; duplicate samples (FIG. 1F)
Description: Brain homogenates are disrupted and clarified by sonication (0.5 second per cycle, 45 cycles, 50% power) followed by centrifugation at 12,000 rpm, RT for 5 minutes. Supernatants are collected and fractionated using Amicon Ultra-2 centrifugal units with a 30 kDa cut-off. Flow-through is collected and NAD is measured using a cycling assay (NAD+/NADH-GloTM (Promega). The NAD+/NADH-GloTM assay is a bioluminescent, homogeneous assay for the detection of total NAD metabolite levels comprising the oxidized and reduced forms of NAD (NAD+ and NADH, respectively). An NAD cycling enzyme is used to convert NAD+ to NADH. In the presence of NADH, the provided reductase enzyme reduces a proluciferin reductase substrate to form luciferin. Luciferin is then quantified using Ultra-Glo recombinant luciferase, and the light signal produced is proportional to the amount of NAD+ and NADH in the sample. Cycling between NAD+ and NADH by the NAD cycling enzyme and reductase increases assay sensitivity and provides selectivity for nonphosphorylated NAD+ and NADH compared to the phosphorylated forms NADP+ and NADPH. Reading is performed between 10 and 50 minutes during the linear increase of the signal in a luminescence reader. NAD values are normalized by total protein concentrations. […] Error bars of duplicate samples are shown. […] Error bars of duplicate samples are shown.

Row | SMILES | blood NAD levels after treatment (C57BL/6 mice) | NAD protection from degradation by NADases (NADases)
1 | NC(=O)c1cccnc1 [NAM, nicotinamide] | Increased blood NAD levels | –
2 | O=c1cc(-c2ccc(O)cc2)oc2cc(O)cc(O)c12 [apigenin] | – | absence of protection

Source: patent US20240003914A1 (THE SCRIPPS RESEARCH INSTITUTE, priority 2020, published 2024)
